Laboratory results reported in ChEMBL document CHEMBL1201862, “PubChem BioAssay data set” (2004).
Active and inactive are the calls of the source.

What was measured:
[1] = target: T1, Ubiquitin-conjugating enzyme E2 N (Homo sapiens, UniProt P61088); assay type: functional;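 also: Dose-response confirmation in a TR-FRET assay detecting UBC13-driven polyubiquitin chain formation, inhibition measured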
T1 sequence (P61088 whole entry): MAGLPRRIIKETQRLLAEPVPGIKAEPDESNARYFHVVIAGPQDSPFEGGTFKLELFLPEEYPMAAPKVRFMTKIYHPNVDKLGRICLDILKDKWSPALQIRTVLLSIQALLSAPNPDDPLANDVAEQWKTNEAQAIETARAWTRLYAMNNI

[2] = HepG2 cell cytotoxicity, dose response, cytotoxicity control for non-replicating M. tuberculosis project (AID 489018); assay type: functional; settings: Mycobacterium tuberculosis
[3] = Counterscreen for inhibitors of Trypanosoma brucei methionyl tRNA synthetase (MetRS): Luminescence-based cell-based high throughput dose response assay to identify compounds that are cytotoxic to Jurkat human T lymphocyte cells.; assay type: functional
[4] = target: T2, Insulin-degrading enzyme (Homo sapiens, UniProt P14735); assay: recombinant IDE activation, cell-free – biochemical, fluorescence polarization, counter-screen for IDE activator project, dose response (AID 588681)
T2 sequence (P14735 whole entry): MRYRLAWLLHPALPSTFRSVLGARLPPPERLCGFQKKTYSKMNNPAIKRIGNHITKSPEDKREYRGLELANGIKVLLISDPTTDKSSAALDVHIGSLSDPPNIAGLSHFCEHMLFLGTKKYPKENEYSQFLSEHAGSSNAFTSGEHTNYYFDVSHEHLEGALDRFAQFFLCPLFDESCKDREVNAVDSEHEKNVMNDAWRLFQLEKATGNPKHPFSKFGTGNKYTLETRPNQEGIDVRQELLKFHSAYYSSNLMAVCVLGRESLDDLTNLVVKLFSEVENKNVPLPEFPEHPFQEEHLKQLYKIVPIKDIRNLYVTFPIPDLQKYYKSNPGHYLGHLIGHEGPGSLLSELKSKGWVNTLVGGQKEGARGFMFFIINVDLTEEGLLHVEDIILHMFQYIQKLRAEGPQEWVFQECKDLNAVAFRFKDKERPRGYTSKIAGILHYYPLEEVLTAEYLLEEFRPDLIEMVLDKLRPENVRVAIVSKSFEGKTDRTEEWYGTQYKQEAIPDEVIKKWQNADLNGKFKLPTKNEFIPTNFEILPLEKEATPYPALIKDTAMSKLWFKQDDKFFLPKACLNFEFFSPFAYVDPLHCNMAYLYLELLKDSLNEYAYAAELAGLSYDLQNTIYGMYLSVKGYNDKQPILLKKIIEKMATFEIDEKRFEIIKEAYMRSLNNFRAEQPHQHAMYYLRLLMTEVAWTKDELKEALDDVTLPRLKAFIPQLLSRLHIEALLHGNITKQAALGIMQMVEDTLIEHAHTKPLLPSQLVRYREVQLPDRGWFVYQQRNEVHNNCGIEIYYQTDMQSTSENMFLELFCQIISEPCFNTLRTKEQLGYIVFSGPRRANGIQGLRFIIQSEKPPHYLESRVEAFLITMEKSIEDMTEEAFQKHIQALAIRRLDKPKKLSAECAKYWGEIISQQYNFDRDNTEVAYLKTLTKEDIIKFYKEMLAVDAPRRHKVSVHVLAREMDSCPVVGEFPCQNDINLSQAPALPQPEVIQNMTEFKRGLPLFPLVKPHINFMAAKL

[5] = target: T3, Methionyl-tRNA synthetase, putative (Trypanosoma brucei brucei, UniProt Q38C91); assay type: functional, Trypanosoma brucei brucei strain 927/4 GUTat10.1
T3 sequence (Q38C91 whole entry): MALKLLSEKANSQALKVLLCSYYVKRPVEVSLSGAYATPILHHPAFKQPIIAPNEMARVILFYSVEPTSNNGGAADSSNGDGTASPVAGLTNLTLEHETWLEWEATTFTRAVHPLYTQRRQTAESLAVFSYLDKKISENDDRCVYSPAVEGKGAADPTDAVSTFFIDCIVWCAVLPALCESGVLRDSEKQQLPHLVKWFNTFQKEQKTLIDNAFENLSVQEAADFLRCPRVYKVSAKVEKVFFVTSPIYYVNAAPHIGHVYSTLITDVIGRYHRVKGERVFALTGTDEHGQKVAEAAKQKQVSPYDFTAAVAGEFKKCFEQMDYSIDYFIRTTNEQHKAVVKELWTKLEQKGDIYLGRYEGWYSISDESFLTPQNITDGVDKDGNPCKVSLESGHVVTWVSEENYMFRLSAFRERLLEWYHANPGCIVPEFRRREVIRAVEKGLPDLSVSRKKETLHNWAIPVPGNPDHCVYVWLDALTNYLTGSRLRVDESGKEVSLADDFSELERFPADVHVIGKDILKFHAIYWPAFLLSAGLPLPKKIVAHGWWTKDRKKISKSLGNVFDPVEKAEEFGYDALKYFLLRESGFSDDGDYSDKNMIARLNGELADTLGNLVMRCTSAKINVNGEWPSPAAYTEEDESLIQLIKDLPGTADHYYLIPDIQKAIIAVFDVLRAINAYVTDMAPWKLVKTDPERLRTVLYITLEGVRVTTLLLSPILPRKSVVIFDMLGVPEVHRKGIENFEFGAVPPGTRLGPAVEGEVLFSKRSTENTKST

[6] = THP-1 cell cytotoxicity, dose response, cytotoxicity control for non-replicating M. tuberculosis project (AID 489025); assay type: functional
[7] = target: T3, Methionyl-tRNA synthetase, putative; assay type: functional, Trypanosoma brucei brucei strain 927/4 GUTat10.1; remark: listed apart in the source
[8] = target: T2, Insulin-degrading enzyme; assay: cellular IDE activation of Abeta substrate cleavage – fluorescence polarization, HEK cells, dose response (AID 588439); assay type: functional, cell-based
[9] = tested on: HEK293; assay: optical interference in Abeta FP readout, dose response, artefact control for IDE activator project, biochemical, fluorescence polarization (AID 588442); assay type: functional, cell-based; settings: Homo sapiens
[10] = cells; assay type: functional
[11] = Vero E6 cell cytotoxicity, dose response, cytotoxicity control for non-replicating M. tuberculosis project, secondary assay (AID 492998); assay type: functional, VeroE6; settings: Vero C1008
[12] = tested on: HEK293; assay: membrane integrity loss in HEK cells – cell-based, fluorescence, cytotoxicity control for IDE activator project, dose response (AID 588440); assay type: functional; settings: Homo sapiens;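 also: cytotoxicity by LDH release measuring loss of membrane integrity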
[13] = target: Melanocortin receptor 4 (Homo sapiens, UniProt P32245); assay: inhibitors of MC4R cAMP signaling – cell-based, TR-FRET, biased antagonists, dose response (AID 602298); assay type: functional;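 also: antagonist potency against agonist-stimulated cAMP production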
Chain of Melanocortin receptor 4 (P32245 whole entry): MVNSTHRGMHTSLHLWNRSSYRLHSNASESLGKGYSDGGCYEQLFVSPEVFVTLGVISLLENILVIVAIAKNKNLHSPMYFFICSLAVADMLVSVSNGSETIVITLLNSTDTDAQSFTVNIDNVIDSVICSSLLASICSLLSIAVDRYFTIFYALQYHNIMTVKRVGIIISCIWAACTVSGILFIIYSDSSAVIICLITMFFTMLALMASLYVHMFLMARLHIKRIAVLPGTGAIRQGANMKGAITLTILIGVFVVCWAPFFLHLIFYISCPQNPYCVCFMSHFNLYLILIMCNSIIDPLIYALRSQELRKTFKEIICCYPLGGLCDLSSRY

[14] = cAMP pathway inhibition in counterscreen cell line – TR-FRET cAMP detection, counter-screen for MC4R biased antagonist project, dose response (AID 602305); assay type: functional, cell-based;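 also: U2OS cells stimulated with forskolin near its EC80 as the cAMP inducer; potency is for inhibition of forskolin-stimulated cAMP signaling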

SMILES: Cc1c(CN2CCC(CO)(CCOc3ccccc3)CC2)[nH]c2ccc(Cl)cc12
- IC50 [1]: > 20 µM (inactive)
- CC50 [2]: 15.1 µM (active)
- IC50 [3]: 25.8 µM (inactive)
- EC50 [4]: > 54.7 µM (inactive)
- IC50 [5]: 64.4 µM (inactive)
- CC50 [6]: 17.9 µM (active)
- IC50 [7]: 38.8 µM (inactive)
- EC50 [8]: 15.9 µM (inactive)
- EC50 [9]: > 54.7 µM (inactive)
- IC50 [10]: 8.32 µM (active)
- CC50 [11]: 16.8 µM (active)
- IC50 [12]: 28.3 µM (inactive)

SMILES: O=S(=O)(c1ccc(Br)c2nsnc12)N1CCOCC1
- IC50 [13]: > 64.6 µM (inactive)
- IC50 [14]: > 64.6 µM (inactive)
